Measured values taken from patent publication US6677368B2, “4-aryl substituted indolinones” (Sugen, Inc., priority 2000, dated 2004).

What was measured:
FLK-1 = target: T1, FLK-1 (Mus musculus, UniProt P35918); assay: GST-FLK-1 bioassay (tyrosine kinase activity on poly(glu-tyr)); format: biochemical; conditions: GST-Flk1, poly(glu-tyr) substrate, 0.5 μM ATP
T1 construct: GST-Flklcd purified from sf9 recombinant baculovirus transfomnation (SUGEN, Inc.); host or cells: Sf9 insect cells, recombinant baculovirus
T1 sequence (P35918 784-1345 limits assumed): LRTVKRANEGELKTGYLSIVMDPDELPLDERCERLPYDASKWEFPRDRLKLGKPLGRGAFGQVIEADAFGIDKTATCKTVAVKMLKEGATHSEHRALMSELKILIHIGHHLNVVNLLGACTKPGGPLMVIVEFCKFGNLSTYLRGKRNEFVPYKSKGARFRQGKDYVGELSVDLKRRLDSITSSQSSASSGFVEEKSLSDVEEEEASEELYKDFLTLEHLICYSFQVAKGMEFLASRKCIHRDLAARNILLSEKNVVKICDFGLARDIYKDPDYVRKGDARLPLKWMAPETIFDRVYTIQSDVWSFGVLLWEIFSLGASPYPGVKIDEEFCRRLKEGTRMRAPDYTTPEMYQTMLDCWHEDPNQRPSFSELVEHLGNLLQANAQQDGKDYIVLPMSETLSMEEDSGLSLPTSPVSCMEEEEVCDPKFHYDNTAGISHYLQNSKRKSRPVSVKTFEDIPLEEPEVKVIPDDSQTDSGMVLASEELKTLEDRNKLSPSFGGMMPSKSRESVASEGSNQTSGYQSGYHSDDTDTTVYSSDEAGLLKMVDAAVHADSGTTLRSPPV
Protocol: This assay analyzes the tyrosine kinase activity of GST-Flk1 on poly(glu-tyr) peptides.
1. Corning 96-well ELISA plates (Corning Catalog No. 25805-96).
2. poly(glu-tyr) 4:1, lyophilizate (Sigma Catalog No. P0275), 1 mg/ml in sterile PBS.
3. PBS Buffer: for 1 L, mix 0.2 g KH2PO4, 1.15 g Na2HPO4, 0.2 g KCl and 8 g NaCl in approx. 900 ml dH2O. When all reagents have dissolved, adjust the pH to 7.2 with HCl. Bring total volume to 1 L with dH2O.
4. PBST Buffer: to 1 L of PBS Buffer, add 1.0 ml Tween-20.
5. TBB—Blocking Buffer: for 1 L, mix 1.21 g TRIS, 8.77 g NaCl, 1 ml TWEEN-20 in approximately 900 ml dH2O. Adjust pH to 7.2 with HCl. Add 10 g BSA, stir to dissolve. Bring total volume to 1 L with dH2O. Filter to remove particulate matter.
6. 1% BSA in PBS: add 10 g BSA to approx. 990 ml PBS buffer, stir to dissolve. Adjust total volume to 1 L with PBS buffer, filter to remove particulate matter.
8. GST-Flklcd purified from sf9 recombinant baculovirus transfomnation (SUGEN, Inc.).
12. Kinase Dilution Buffer (KDB): mix 10 ml Hepes (pH 7.5), 1 ml 5M NaCl, 40 μL 100 mM sodium orthovanadate and 0.4 ml of 5% BSA in dH2O with 88.56 ml dH2O.
13. NUNC 96-well V bottom polypropylene plates, Applied Scientific Catalog #AS-72092
14. EDTA: mix 14.12 g ethylenediaminetetraacetic acid (EDTA) with approx. 70 ml dH2O. Add 10 N NaOH until EDTA dissolves. Adjust pH to 8.0. Adjust total volume to 100 ml with dH2O.
15. 1° and 2° Antibody Dilution Buffer: mix 10 ml of 5% BSA in PBS buffer with 89.5 ml TBST.
16. Anti-phosphotyrosine rabbit polyclonal antisera (SUGEN, Inc.)
17. Goat anti-rabbit HRP conjugate.
18. ABST solution: To approx. 900 ml dH2O add 19.21 g citric acid and 35.49 g Na2HPO4. Adjust pH to 4.0 with phosphoric acid. Add 2,2′-Azinobis(3-ethyl-benzthiazoline-6-sulfonic acid (ABTS, Sigma, Cat. No. A-1888, hold for approx. ½ hour, filter.
19. 30% Hydrogen Peroxide.
20. ABST/H2O2: add 3 μl of H2O2 to 15 ml of ABST solution.
1. Coat Corning 96-well ELISA plates with 2 μg of polyEY in 100 μl PBS/well, hold at room temperature for 2 hours or at […] overnight. Cover plates to prevent evaporation.
2. Remove unbound liquid from wells by inverting plate. Wash once with TBST. Pat the plate on a paper towel to remove excess liquid.
3. Add 100 μl of 1% BSA in PBS to each well. Incubate, with shaking, for 1 hr. at room temperature.
5. Soak wells with 50 mM HEPES (pH7.5, 150 μl/well).
6. Dilute test compound with dH2O/4% DMSO to 4 times the desired final assay concentration in 96-well polypropylene plates.
7. Add 25 μl diluted test compound to each well of ELISA plate. In control wells, place 25 μl of dH2O/4% DMSO.
8. Dilute GST-Flk1 0.005 μg (5 ng)/well in KDB.
9. Add 50 μl of diluted enzyme to each well.
10. Add 25 μl 0.5 M EDTA to negative control wells.
11. Add 25 μl of 40 mM MnCl2 with 4×ATP (2 μM) to all wells (100 μl final volume, 0.5 μM ATP final concentration in each well).
12. Incubate, with shaking, for 15 minutes at room temperature.
13. Stop reaction by adding 25 μl of 500 mM EDTA to each well.
14. Wash 3× with TBST and pat plate on paper towel to remove excess liquid.
15. Add 100 μl per well anti-phosphotyrosine antisera, 1:10,000 dilution in antibody dilution buffer. Incubate, with shaking, for 90 min. at room temperature.
17. Add 100 μl/well of goat anti-rabbit HRP conjugate (1:6,000 in antibody dilution buffer). Incubate, with shaking, for 90 minutes are room temperature.
19. Add 100 μl room temperature ABST/H2O2 solution to each well.
20. Incubate, with shaking for 15 to 30 minutes at room temperature.
21. If necessary, stop reaction by adding 100 μl of 0.2 M HCl to each well.
22. Read results on Dynatech MR7000 ELISA reader with test filter at 410 nM and reference filter at 630 nM.

FGFR3 = FGFR3 (Homo sapiens, UniProt P22607); assay: FGFR3 kinase inhibition; format: biochemical
Chain of FGFR3 (P22607 23-806, species assumed): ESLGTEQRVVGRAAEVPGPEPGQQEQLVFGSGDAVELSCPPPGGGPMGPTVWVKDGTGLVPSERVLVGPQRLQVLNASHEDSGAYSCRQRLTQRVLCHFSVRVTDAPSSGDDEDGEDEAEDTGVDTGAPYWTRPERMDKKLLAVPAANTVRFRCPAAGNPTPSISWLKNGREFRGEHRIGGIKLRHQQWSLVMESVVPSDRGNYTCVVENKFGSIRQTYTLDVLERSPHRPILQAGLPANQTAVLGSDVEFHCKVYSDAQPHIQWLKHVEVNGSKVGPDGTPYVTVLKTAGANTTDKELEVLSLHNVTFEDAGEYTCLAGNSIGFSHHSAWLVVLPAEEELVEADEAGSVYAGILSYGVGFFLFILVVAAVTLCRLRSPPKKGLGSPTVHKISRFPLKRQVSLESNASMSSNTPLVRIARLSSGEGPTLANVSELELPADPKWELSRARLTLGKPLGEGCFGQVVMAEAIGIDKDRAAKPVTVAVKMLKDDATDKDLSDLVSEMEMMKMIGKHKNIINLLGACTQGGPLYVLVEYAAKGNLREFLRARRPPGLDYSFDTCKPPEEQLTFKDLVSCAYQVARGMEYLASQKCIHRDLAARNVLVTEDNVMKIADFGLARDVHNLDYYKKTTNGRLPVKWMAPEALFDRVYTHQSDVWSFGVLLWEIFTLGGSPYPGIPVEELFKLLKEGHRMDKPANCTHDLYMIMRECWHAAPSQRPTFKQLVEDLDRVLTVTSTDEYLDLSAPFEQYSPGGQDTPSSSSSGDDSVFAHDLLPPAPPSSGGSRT

SMILES | IC50 (FLK-1) [nM] | IC50 (FGFR3) [nM]
CCN(CC)CCNC(=O)c1c(C)[nH]c(/C=C2\C(=O)Nc3cccc(-c4ccccc4)c32)c1C [Example 3, 2,4-Dimethyl-5-(2-oxo-4-phenyl-1,2-dihydro-indol-3-ylidenemethyl)-1H-pyrrole-3-carboxylic Acid (2-Diethylamino-ethyl)-amide] | 9 | –
Cc1[nH]c(/C=C2\C(=O)Nc3cccc(-c4ccc(F)cc4)c32)c(C)c1C(=O)N1CCN(C)CC1 [Example 4, 3-[3,5-Dimethyl-4-(4-methyl-piperazine-1-carbonyl)-1H-pyrrol-2-ylmethylene]-4-(4-fluoro-phenyl)-1,3-dihydro-indol-2-one] | 74 | –
Cc1[nH]c(/C=C2\C(=O)Nc3cccc(-c4cccc(F)c4)c32)c(C)c1C(=O)NCCn1ccnn1 [Example 15, 5-[4-(3-Fluoro-phenyl)-2-oxo-1,2-dihydro-indol-3-ylidenemethyl]-2,4-dimethyl-1H-pyrrole-3-carboxylic Acid (2-[1,2,3]Triazol-1-yl-ethyl)-amide] | 32 | 72
Cc1[nH]c(/C=C2\C(=O)Nc3cccc(-c4ccc(Cl)cc4)c32)c(C)c1C(=O)N1CCN(C)CC1 [Example 20, 4-(4-Chloro-phenyl)-3-[3,5-dimethyl-4-(4-methyl-piperazine-1-carbonyl)-1H-pyrrol-2-ylmethylene]-1,3-dihydro-indol-2-one] | 230 | 1290
Cc1cc(C(=O)N2CC[C@@H](N(C)C)C2)c(/C=C2\C(=O)Nc3cccc(-c4ccc(Cl)cc4)c32)[nH]1 [Example 25, 4-(4-Chloro-phenyl)-3-[3-((R)-3-dimethylamino-pyrrolidine-1-carbonyl)-5-methyl-1H-pyrrol-2-ylmethylene]-1,3-dihydro-indol-2-one] | 180 | 340
Cc1cc(C(=O)N2C[C@@H](C)N[C@@H](C)C2)c(/C=C2\C(=O)Nc3cccc(-c4ccc(Cl)cc4)c32)[nH]1 [Example 27] | 170 | 610
CCN(CC)CCNC(=O)c1c(C)[nH]c(/C=C2\C(=O)Nc3cccc(-c4cccc(Cl)c4)c32)c1C [Example 29, 5-[4-(3-Chloro-phenyl)-2-oxo-1,2-dihydro-indol-3-ylidenemethyl]-2,4-dimethyl-1H-pyrrole-3-carboxylic Acid (2-Diethylamino-ethyl)-amide] | 41 | 320
Cc1cc(C(=O)N2CC[C@H](N(C)C)C2)c(/C=C2\C(=O)Nc3cccc(-c4cccc(Cl)c4)c32)[nH]1 [Example 32, 4-(3-Chloro-phenyl)-3-[3-((S)-3-dimethylamino-pyrrolidine-1-carbonyl)-5-methyl-1H-pyrrol-2-ylmethylene]-1,3-dihydro-indol-2-one] | 51 | 1770
Cc1cc(C(=O)NCCn2ccnn2)c(/C=C2\C(=O)Nc3cccc(-c4cccc(Cl)c4)c32)[nH]1 [Example 34, 2-[4-(3-Chloro-phenyl)-2-oxo-1,2-dihydro-indol-3-ylidenemethyl]-5-methyl-1H-pyrrole-3-carboxylic Acid (2-[1,2,3]Triazol-1-yl-ethyl)-amide] | 1060 | 940
Cc1[nH]c(/C=C2\C(=O)Nc3cccc(-c4ccccc4F)c32)c(C)c1C(=O)N1CCN(C)CC1 [Example 93, 3-[3,5-Dimethyl-4-(4-methyl-piperazine-1-carbonyl)-1H-pyrrol-2-ylmethylene]-4-(2-fluoro-phenyl)-1,3-dihydro-indol-2-one] | < 9.1 | –
Cc1cc(C(=O)NCCN2CCCC2)c(/C=C2\C(=O)Nc3cccc(-c4ccc(F)c(Cl)c4)c32)[nH]1 [Example 119, 2-[4-(3-Chloro-4-fluoro-phenyl)-2-oxo-1,2-dihydro-indol-3-ylidenemethyl]-5-methyl-1H-pyrrole-3-carboxylic Acid (2-Pyrrolidin-1-yl-ethyl)-amide] | 180 | –
CCN(CC)CCNC(=O)c1c(C)[nH]c(/C=C2\C(=O)Nc3cccc(-c4ccc(OC(F)(F)F)cc4)c32)c1C [Example 140, 2,4-Dimethyl-5-[2-oxo-4-(4-trifluoromethoxy-phenyl)-1,2-dihydro-indol-3-ylidenemethyl]-1H-pyrrole-3-carboxylic Acid (2-Diethylamino-ethyl)-amide] | 75 | –

The remaining compounds from weak to strong by IC50 (FLK-1), led by results:

IC50 (FLK-1) [nM] | IC50 (FGFR3) [nM] | SMILES
420 | 350 | CCOC(=O)c1c(C)[nH]c(/C=C2\C(=O)Nc3cccc(-c4cccc(F)c4)c32)c1CCCN1CCN(C)CC1 [Example 18, 5-[4-(3-Fluoro-phenyl)-2-oxo-1,2-dihydro-indol-3-ylidenemethyl]-2-methyl-4-[3-(4-methyl-piperazin-1-yl)-propyl]-1H-pyrrole-3-carboxylic Acid Ethyl Ester]
180 | – | Cc1cc(C(=O)N2CC[C@H](N(C)C)C2)c(/C=C2\C(=O)Nc3cccc(-c4ccc(F)cc4)c32)[nH]1 [Example 10, 3-[3-((S)-3-Dimethylamino-pyrrolidine-1-carbonyl)-5-methyl-1H-pyrrol-2-ylmethylene]-4-(4-fluoro-phenyl)-1,3-dihydro-indol-2-one]
170 | – | Cc1cc(C(=O)NCCn2ccnn2)c(/C=C2\C(=O)Nc3cccc(-c4ccccc4F)c32)[nH]1 [Example 99, 2-[4-(2-Fluoro-phenyl)-2-oxo-1,2-dihydro-indol-3-ylidenemethyl]-5-methyl-1H-pyrrole-3-carboxylic Acid (2-[1,2,3]Triazol-1-yl-ethyl)-amide]
66 | – | Cc1[nH]c(/C=C2\C(=O)Nc3cccc(-c4cccc(C(F)(F)F)c4)c32)c(C)c1C(=O)N1CCN(C)CC1 [Example 104, 3-[3,5-Dimethyl-4-(4-methyl-piperazine-1-carbonyl)-H-pyrrol-2-ylmethylene]-4-(3-trifluoromethyl-phenyl)-1,3-dihydro-indol-2-one]
21 | – | Cc1[nH]c(/C=C2\C(=O)Nc3cccc(-c4ccc(F)cc4)c32)c(C)c1C(=O)NCCN1CCCC1 [Example 6, 5-[4-(4-Fluoro-phenyl)-2-oxo-1,2-dihydro-indol-3-ylidenemethyl]-2,4-dimethyl-1H-pyrrole-3-carboxylic Acid (2-Pyrrolidin-1-yl-ethyl)-amide]
16 | 74 | Cc1[nH]c(/C=C2\C(=O)Nc3cccc(-c4ccc(Cl)cc4)c32)c(C)c1C(=O)NCCN1CCCC1 [Example 22, 5-[4-(4-Chloro-phenyl)-2-oxo-1,2-dihydro-indol-3-ylidenemethyl]-2,4-dimethyl-1H-pyrrole-3-carboxylic Acid (2-Pyrrolidin-1-yl-ethyl)-amide]
13 | 21 | CCN(CC)CCNC(=O)c1c(C)[nH]c(/C=C2\C(=O)Nc3cccc(-c4cccc(F)c4)c32)c1C [Example 13, 5-[4-(3-Fluoro-phenyl)-2-oxo-1,2-dihydro-indol-3-ylidenemethyl]-2,4-dimethyl-1H-pyrrole-3-carboxylic Acid (2-Diethylamino-ethyl)-amide]
